Test results reported in EP2519243B1, “COMPOSITIONS AND METHODS FOR TREATING HEPATITIS B VIRUS INFECTION” (priority 2009, dated 2011).
Where two headings read alike, the source gives them in different places.

Tests used:
HBV [1] = assay: Viral dynamic analyses of serum HBV DNA under lamivudine therapy (model fit and simulation); set-up: species or system human; conditions: estimate (standard error)
Text: The HBV DNA data used in the unique assessments disclosed herein of HBV viral dynamics under lamivudine therapy were obtained from the previously published lamivudine dose-response curves (FIG. 1). […] Therefore, for the viral dynamic analyses, only data up to day 15 were used.
The digitalized data were converted to percent change from baseline as (Vt-V0)/V0 and further presented as Vt/V0, where V0 and Vt are the HBV DNA data at baseline and at time t after treatment initiation, respectively. The viral dynamic model as illustrated below was fitted to the Vt/V0 vs. time data: Vt /V0 = [(ε*u-a)/(u-a)]*exp(-u*t) + [(1-ε)*u/(u-a)]*exp(-a*t) [formula] where u is the clearance rate constant of free virions; a is the clearance rate constant of infected cells; ε is the inhibition efficacy.
Table 3. Exemplary viral dynamic parameter estimates (standard error) of lamivudine
These analyses are illustrated in FIG. 2.
Table 4. Examples of model predicted HBV DNA reduction from baseline on long10 scale (% change)

HBV [2] = assay: Emax modeling of predicted day 29 HBV DNA reduction versus lamivudine dose; set-up: species or system human; conditions: Emax model estimate (standard error); Emax fixed to 4; day 29 predicted data
Text: The predicted HBV DNA reduction data on day 29 were used for Emax modeling analyses for the purpose of defining optimal doses of lamivudine.
An Emax model in the form of E = Emax *ED50^h /(D^h+ED50^h) [formula] where E and Emax are the viral response with dose D and maximum viral response respectively; ED50 is the dose resulting in 50% of viral response; h is the Hill parameter. The maximum reduction of HBV NDA at 4 weeks achievable by a nucleoside/nucleotide antiviral is approximately 4 log10. (Buti et al. J. Hepatol. 39: S139-S142, 2003.) Therefore, in the Emax modeling herein, Emax was fixed to 4.
Using these estimates, viral responses at untested doses were predicted and results are illustrated in FIG. 3 and presented in Table 5.

HBV [3] = conditions: day 29, 100 mg/day dose; no additional benefits with 300 mg or 600 mg; cited from earlier work
HBV [4] = conditions: cited from earlier work; for cumulative rate of resistance: in 5 years
[5] = cited from earlier work

Row | Structure (SMILES) | e (inhibition efficacy) (HBV [1]; lamivudine 5 mg/day) | e (inhibition efficacy) (HBV [1]; lamivudine 20 mg/day) | e (inhibition efficacy) (HBV [1]; lamivudine 100 mg/day) | e (inhibition efficacy) (HBV [1]; lamivudine 300 mg/day) | e (inhibition efficacy) (HBV [1]; lamivudine 600 mg/day) | ED50 (dose resulting in 50% of viral response) (HBV [2]) | maximal observed viral suppression (median, from baseline) (HBV [3]) [%] | cumulative rate of resistance (HBV [4]; HBeAg negative patients) [%] | cumulative rate of resistance (HBV [4]; HBeAg positive patients) | 5-year resistance rate (HBV [4]; monotherapy) | cumulative rate of nephrotoxicity ([5]; 10 mg per day, 4-5 years, patients with compensated liver disease) [%] | adefovir-associated nephrotoxicity (patients) ([5]; decompensated liver disease and liver transplantation, treatment periods of 39-99 weeks)
1 | Nc1ccn([C@@H]2CS[C@H](CO)O2)c(=O)n1 (relative stereo) [lamivudine, (2R,cis)-4-amino-1-(2-hydroxymethyl-1,3-oxathiolan-5-yl)-(1H)-pyrimidin-2-one] | 0.6193 (0.0369) | 0.8186 (0.0374) | 0.8173 (0.0254) | 0.8463 (0.0087) | 0.8673 (0.0248) | 101.5 (29.04) mg | ≥ 98 |  |  |  |  | 
2 | CC(C)(C)C(=O)OCOP(=O)(COCCn1cnc2c(N)ncnc21)OCOC(=O)C(C)(C)C [adefovir dipivoxil, 9-[2-[[bis[(pivaloyloxy)methoxy]-phosphinyl]-methoxy]ethyl]adenine] |  |  |  |  |  |  |  | 29 | about 20% | 20-30% | 3 | up to 47%
